The results in this text go back to patent publication US7605165B2, “Phenylalanine derivatives” (Ajinomoto Co., Inc., priority 2002, dated 2009).

The target in one test is T1, integrin α4β7 (Homo sapiens, UniProt P13612+P26010).
T1 construct: lymphoma cell strain RPMI-8866 of human B cells, known to express integrin α4β7; endogenous in cells; host or cells: RPMI-8866, human B-cell lymphoma line
T1 sequence (P13612 34-1032): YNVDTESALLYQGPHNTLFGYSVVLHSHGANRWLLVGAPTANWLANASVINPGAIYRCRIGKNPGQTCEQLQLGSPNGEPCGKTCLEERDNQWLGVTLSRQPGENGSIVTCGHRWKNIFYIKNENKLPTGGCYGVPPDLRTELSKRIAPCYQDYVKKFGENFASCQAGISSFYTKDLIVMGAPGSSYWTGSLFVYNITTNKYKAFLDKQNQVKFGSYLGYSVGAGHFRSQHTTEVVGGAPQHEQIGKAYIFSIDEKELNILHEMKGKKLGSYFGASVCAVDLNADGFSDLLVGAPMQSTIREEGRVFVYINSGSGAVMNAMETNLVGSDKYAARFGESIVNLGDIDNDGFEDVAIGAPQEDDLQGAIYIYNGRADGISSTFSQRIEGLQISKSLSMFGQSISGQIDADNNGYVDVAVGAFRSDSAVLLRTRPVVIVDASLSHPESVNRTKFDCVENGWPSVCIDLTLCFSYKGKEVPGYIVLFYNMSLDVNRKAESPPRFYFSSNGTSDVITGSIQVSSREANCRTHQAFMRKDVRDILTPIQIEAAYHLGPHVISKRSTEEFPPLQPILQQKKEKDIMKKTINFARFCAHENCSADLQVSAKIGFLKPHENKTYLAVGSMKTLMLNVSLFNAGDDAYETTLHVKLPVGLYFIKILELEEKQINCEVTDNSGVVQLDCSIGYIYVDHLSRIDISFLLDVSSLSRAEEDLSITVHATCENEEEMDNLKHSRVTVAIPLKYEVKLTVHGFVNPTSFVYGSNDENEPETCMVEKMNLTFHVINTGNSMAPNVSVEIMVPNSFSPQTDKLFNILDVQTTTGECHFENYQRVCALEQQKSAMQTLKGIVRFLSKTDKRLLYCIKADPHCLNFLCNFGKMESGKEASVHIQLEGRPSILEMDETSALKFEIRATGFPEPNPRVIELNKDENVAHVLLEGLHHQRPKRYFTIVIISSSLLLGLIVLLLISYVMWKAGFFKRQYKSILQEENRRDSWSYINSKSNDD
T1 sequence (P26010 20-798): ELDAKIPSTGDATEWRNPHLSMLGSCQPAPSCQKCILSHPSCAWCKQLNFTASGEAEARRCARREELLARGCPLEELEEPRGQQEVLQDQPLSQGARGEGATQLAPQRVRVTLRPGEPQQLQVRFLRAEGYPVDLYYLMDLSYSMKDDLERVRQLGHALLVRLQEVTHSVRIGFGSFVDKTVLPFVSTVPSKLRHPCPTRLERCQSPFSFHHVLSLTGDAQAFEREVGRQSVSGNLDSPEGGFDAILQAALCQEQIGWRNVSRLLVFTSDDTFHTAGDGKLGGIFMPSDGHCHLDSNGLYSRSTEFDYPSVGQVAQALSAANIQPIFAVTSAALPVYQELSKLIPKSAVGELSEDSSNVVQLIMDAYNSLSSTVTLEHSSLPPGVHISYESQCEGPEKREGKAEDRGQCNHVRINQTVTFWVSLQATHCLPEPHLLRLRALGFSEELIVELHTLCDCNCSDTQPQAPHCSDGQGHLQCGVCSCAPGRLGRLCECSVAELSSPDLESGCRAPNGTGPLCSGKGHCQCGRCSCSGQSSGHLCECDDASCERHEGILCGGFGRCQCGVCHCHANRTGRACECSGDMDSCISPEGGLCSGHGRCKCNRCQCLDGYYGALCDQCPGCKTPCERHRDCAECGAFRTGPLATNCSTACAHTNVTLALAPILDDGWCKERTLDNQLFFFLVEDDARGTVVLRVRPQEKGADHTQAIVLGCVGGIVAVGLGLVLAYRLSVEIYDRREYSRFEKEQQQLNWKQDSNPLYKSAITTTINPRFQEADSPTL
The experiment in a line: Assessment of VCAM-1/α4β7 binding antagonistic activity (RPMI-8866 cells binding to VCAM-1). It counts as cell-based. The conditions noted are these: RPMI-8866 human B lymphoma cells binding to recombinant human VCAM-1, binding buffer with 4 mM MnCl2; read-out: integrin VCAM/α4 binding antagonistic activity (IC50) α4β7. The method, then:
The capacity of a test substance antagonistic to the binding of lymphoma cell strain RPMI-8866 of human B cells, known to express integrin α4β7, to VCAM-1 was determined.
(§1) 100 μl/well of a solution (500 ng/ml) of recombinant human VCAM-1 (R & D systems) solution diluted with buffer A (0.1 M NaHCO3, pH 9.6) was added to a micro titer plate having 96 wells (Nunc Maxisorp). After the incubation at 4° C. overnight, unbound VCAM-1 was removed by washing once with PBS. After completion of the washing, a buffer (buffer B) obtained by diluting Block Ace (Dainippon Pharmaceutical Co., Ltd.) with PBS to 1/4 concentration was added in an amount of 150 μl/well. After the incubation at room temperature for 1 hour, buffer B was removed and the plate was washed with PBS once.
RPMI-8866 cells were washed with DMEM twice and incubated in Dulbecco modified Eagle medium containing 10 μg/ml of Calcein-AM (Wako Pure Chemical Industries, Ltd.) (SIGMA, hereinafter referred to as “DMEM”) in dark place at 37° C. for 30 minutes to label with fluorescence. The cells were again suspended in a binding buffer (20 mM HEPES, DMEM containing 0.1% BSA) containing 4 mM of MnCl2.
(§2) 50 μl of a test substance of various concentrations obtained by the dilution with the binding buffer was added to the plate. Immediately thereafter, 50 μl (final volume: 100 μl/well) of the fluorescent RPMI-8866 cells (4×10^6 cells/ml) were added thereto, and they were incubated in dark place at room temperature for 30 minutes. After the shaking on a plate shaker (IKA MTS-4) at 800 rpm for 30 seconds, the solution was immediately removed to remove the unbound cells. The fluorescence quantity of the bound cells remaining in the wells was determined with a fluorescent plate reader (Wallac 1420 ARVO multi-label counter) (filter excitation wave length: 485 nm, emission wave length: 535 nm). The fluorescent strength thus obtained is proportional to the number of RPMI-8866 cells bound to VCAM-1 and remaining on the plate. The binding rate of each test material in various concentrations was determined while the fluorescent strength of the test material-free well was determined to be 100%.

For another test, the target named is T2, integrin α4β1 (Homo sapiens, UniProt P05556+P13612).
T2 construct: cell strain Jurkat (ATCC TIB-152) of human T cells, known to express integrin α4β1; endogenous in cells; host or cells: Jurkat (ATCC TIB-152), human T cells
T2 sequence (P05556 21-798, one chain of several): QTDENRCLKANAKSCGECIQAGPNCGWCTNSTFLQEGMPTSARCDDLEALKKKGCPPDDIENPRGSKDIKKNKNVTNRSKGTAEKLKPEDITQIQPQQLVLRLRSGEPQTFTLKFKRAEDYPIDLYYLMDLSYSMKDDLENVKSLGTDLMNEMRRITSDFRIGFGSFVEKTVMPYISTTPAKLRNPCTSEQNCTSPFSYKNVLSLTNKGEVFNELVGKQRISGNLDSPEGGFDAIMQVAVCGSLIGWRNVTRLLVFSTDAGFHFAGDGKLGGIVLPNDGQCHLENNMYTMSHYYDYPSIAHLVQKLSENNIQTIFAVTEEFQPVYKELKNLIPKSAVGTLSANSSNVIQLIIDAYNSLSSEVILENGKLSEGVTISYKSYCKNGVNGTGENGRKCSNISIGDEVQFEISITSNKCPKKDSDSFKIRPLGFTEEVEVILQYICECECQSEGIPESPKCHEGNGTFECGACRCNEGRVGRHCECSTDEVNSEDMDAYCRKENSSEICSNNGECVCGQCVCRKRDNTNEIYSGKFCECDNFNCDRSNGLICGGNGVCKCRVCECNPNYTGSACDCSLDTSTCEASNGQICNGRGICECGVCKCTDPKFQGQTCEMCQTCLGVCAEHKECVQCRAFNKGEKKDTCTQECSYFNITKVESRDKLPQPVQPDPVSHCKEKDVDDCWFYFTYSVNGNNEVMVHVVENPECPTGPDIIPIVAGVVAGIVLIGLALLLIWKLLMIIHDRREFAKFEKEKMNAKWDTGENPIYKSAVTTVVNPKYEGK
The experiment in a line: Assessment of VCAM-1/α4β1 binding antagonist activity (Jurkat cells binding to VCAM-1). It counts as cell-based. The following applies: Jurkat human T cells binding to recombinant human VCAM-1; read-out: integrin VCAM/α4 binding antagonistic activity (IC50) α4β1. Here is the method: The capacity of a test substance antagonistic to the binding of cell strain Jurkat (ATCC TIB-152) of human T cells, known to express integrin α4β1, to VCAM-1 was determined.
as §1
Jurkat cells were washed with Dulbecco modified Eagle medium (SIGMA, hereinafter referred to as “DMEM”) twice and then incubated in DMEM containing 10 μg/ml of Calcein-AM (Wako Pure Chemical Industries, Ltd.) at 37° C. in dark place for 30 minutes to label with fluorescence. The cells were again suspended in a binding buffer (20 mM HEPES, DMEM containing 0.1% BSA).
as §2, with “Jurkat” for “RPMI-8866”

For `Cc1ccccc1Cn1c(=O)n(-c2ccc(C[C@H](NC(=O)c3c(Cl)cccc3Cl)C(=O)O)cc2)c(=O)c2ccccc21` [compound 120], the IC50 on integrin α4β7 came out at 24 nM; at integrin α4β1, 500 nM.
With `O=C(N[C@@H](Cc1ccc(-n2c(=O)c3ccccc3n(Cc3c(F)cccc3Cl)c2=O)cc1)C(=O)O)c1c(Cl)cccc1Cl` [compound 121], the IC50 on integrin α4β7 turned out to be 14 nM; at integrin α4β1 it was 109 nM.
In the case of `O=C(N[C@@H](Cc1ccc(-n2c(=O)[nH]c3cc(F)ccc3c2=O)cc1)C(=O)O)c1c(Cl)cccc1Cl` [compound 78], the results for the IC50 on integrin α4β7 and on integrin α4β1 were 9.6 nM and 180 nM, respectively.
In the case of `O=C(N[C@@H](Cc1ccc(-n2c(=O)c3ccccc3n(Cc3ccc(Cl)c(Cl)c3)c2=O)cc1)C(=O)O)c1c(Cl)cccc1Cl` [compound 115], the IC50 at integrin α4β7 is 36 nM; at integrin α4β1, 760 nM.
The matching figures for `Cc1cccc2nnn(-c3ccc(C[C@H](NC(=O)c4c(Cl)cccc4Cl)C(=O)O)cc3)c(=O)c12` [compound 89]: 2.7 nM and 41 nM.
In the case of `CN(C)c1ccc2c(c1)c(=O)n(-c1ccc(C[C@H](NC(=O)c3c(Cl)cccc3Cl)C(=O)O)cc1)c(=O)n2C` [Reference Example 108], the IC50 on integrin α4β7 was 3.3 nM; on integrin α4β1 it was 57 nM.
On to `CC(C)CNc1nc2ccccc2c(=O)n1-c1ccc(C[C@H](NC(=O)c2c(Cl)cccc2Cl)C(=O)O)cc1` [compound 126], for which the values for the IC50 at integrin α4β7 and at integrin α4β1 were 70 nM and 1580 nM, respectively.
For `N#CCn1c(=O)n(-c2ccc(C[C@H](NC(=O)c3c(Cl)cccc3Cl)C(=O)O)cc2)c(=O)c2ccccc21` [Example 6], in that order: 3.3 nM and 80 nM.
For `CCN(C)c1ccc2c(c1)c(=O)n(-c1ccc(C[C@H](NC(=O)c3c(Cl)cccc3Cl)C(=O)O)cc1)c(=O)n2C` [compound 109], in that order: 4.3 nM and 56 nM.
For `Cn1c(=O)n(-c2ccc(C[C@H](NC(=O)c3c(Cl)cccc3Cl)C(=O)O)cc2)c(=O)c2cc(NC(=O)C(C)(C)C)ccc21` [compound 106], in that order: 2.8 nM and 44 nM.
Turning to `COc1ccc2c(c1)N(C)C(=O)N(c1ccc(C[C@H](NC(=O)c3c(Cl)cccc3Cl)C(=O)O)cc1)S2(=O)=O` [compound 99], the IC50 on integrin α4β7 is 2 nM; on integrin α4β1, 12 nM.
Consider `O=C(N[C@@H](Cc1ccc(-n2c(=O)c3ccccc3n(Cc3ccc(Cl)cc3Cl)c2=O)cc1)C(=O)O)c1c(Cl)cccc1Cl` [compound 116], for which the results for the IC50 on integrin α4β7 and at integrin α4β1 were 35 nM and 450 nM, respectively.
The matching figures for `CCOc1nc2cccc(C)c2c(=O)n1-c1ccc(C[C@H](NC(=O)c2c(Cl)cccc2Cl)C(=O)O)cc1` [compound 94]: 6 nM and 1150 nM.
For `O=C(N[C@@H](Cc1ccc(-n2nnc3ccc(F)cc3c2=O)cc1)C(=O)O)c1c(Cl)cccc1Cl` [compound 85], in that order: 25 nM and 230 nM.
For the molecule `O=C(N[C@@H](Cc1ccc(-n2c(=O)c3ccccc3n(Cc3c(Cl)cccc3Cl)c2=O)cc1)C(=O)O)c1c(Cl)cccc1Cl` [Reference Example 114], the IC50 was found to be 27 nM at integrin α4β7 and 190 nM at integrin α4β1.
Turning to `Cn1c(=O)n(-c2ccc(C[C@H](NC(=O)c3c(Cl)cccc3Cl)C(=O)NO)cc2)c(=O)c2ccccc21` [Reference Example 211], the IC50 worked out at 20 nM at integrin α4β7 and 250 nM on integrin α4β1.
The matching figures for `COc1ccc2nnn(-c3ccc(C[C@H](NC(=O)c4c(Cl)cccc4Cl)C(=O)O)cc3)c(=O)c2c1` [Reference Example 84]: 20 nM and 158 nM.
The matching figures for `O=C(N[C@@H](Cc1ccc(-n2c(=O)[nH]c3ncccc3c2=O)cc1)C(=O)O)c1c(Cl)cccc1Cl` [compound 79]: 18 nM and 440 nM.
For `Cn1c(=O)n(-c2ccc(C[C@H](NC(=O)c3c(Cl)cccc3Cl)C(=O)O)cc2)c(=O)c2cc([N+](C)(C)C)ccc21` [Reference Example 112], in that order: 1.1 nM and 37 nM.
`Cc1cccc(Cl)c1C(=O)N[C@@H](Cc1ccc(-n2c(=O)c3ccccc3n(C)c2=O)cc1)C(=O)O` [Reference Example 162]: the results for the IC50 at integrin α4β7 and at integrin α4β1 were 0.2 nM and 34 nM, respectively.
For `O=C(N[C@@H](Cc1ccc(-n2c(=O)c3ccccc3n(Cc3c(F)cccc3F)c2=O)cc1)C(=O)O)c1c(Cl)cccc1Cl` [Example 4], in that order: 2.8 nM and 26 nM.
